Data on four compounds can be found in article PMC3974799 (PLoS ONE, 2014).

Experiment [1] has as its target T1, cytochrome bc1 complex (Btbc1), cyt b subunit (Bos taurus, UniProt P00157).
T1 construct: gene MT-CYB; purified 11-subunit mitochondrial bc1 complex from beef heart; with cyt c1, iron-sulfur protein (bc1 complex)
Description: cyt c reduction assay with purified bc1. The format is biochemical.

Experiment [2] deals with T2, Complex III (cyt bc1 complex), cyt b subunit.
T2 construct: light mitochondrial fraction; with cyt c1, iron-sulfur protein (bc1 complex)
Description: cyt c reduction with decylubiquinol in isolated mitochondria, […] inhibition at […]. The format is cell-based, Phytophthora capsici. The settings on record: 4 µM.

Experiment [3] concerns the target T3, cytochrome bc1 complex (Rsbc1), cyt b subunit (Cereibacter sphaeroides, UniProt Q02761).
T3 construct: gene petB; purified hexahistidine-tagged 4-subunit bc1 complex; with cyt c1, iron-sulfur protein (bc1 complex)
T3 sequence (Q02761 2-445): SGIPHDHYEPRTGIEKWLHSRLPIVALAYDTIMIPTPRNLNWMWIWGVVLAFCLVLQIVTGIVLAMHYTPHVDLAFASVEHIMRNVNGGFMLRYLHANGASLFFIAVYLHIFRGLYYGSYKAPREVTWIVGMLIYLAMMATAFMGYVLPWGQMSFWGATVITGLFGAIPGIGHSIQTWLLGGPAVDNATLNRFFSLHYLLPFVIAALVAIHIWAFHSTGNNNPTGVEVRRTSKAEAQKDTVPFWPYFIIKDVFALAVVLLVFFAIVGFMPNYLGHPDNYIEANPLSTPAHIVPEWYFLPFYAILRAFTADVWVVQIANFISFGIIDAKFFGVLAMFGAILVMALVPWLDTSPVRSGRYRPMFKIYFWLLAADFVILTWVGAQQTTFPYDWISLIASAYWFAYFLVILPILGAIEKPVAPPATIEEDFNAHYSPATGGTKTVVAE
Description: cyt c reduction assay with purified bc1; Lineweaver-Burk kinetics. The experiment is classed as biochemical.

Experiment [4] concerns the target T1, cytochrome bc1 complex (Btbc1), cyt b subunit. Description: cyt c reduction assay with purified bc1; also difference spectra and Lineweaver-Burk kinetics. The experiment is classed as biochemical.
For experiment [5] the target is unchanged. The experiment can be described thus: Lineweaver-Burk kinetics at […]; difference spectra; single turnover. The format is biochemical.

pIC50: −log10 of the molar value.

T1 sequence (P00157 whole entry): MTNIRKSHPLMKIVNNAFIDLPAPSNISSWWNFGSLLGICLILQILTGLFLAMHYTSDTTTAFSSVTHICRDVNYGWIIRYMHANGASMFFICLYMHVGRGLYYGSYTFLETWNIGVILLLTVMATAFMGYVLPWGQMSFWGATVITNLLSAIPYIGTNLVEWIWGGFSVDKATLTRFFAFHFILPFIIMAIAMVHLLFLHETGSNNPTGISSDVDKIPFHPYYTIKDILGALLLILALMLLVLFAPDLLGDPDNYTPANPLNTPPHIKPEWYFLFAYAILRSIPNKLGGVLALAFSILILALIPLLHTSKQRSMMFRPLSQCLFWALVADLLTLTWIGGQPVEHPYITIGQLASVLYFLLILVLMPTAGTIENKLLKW
T1 sequence (P13272 79-274 partner): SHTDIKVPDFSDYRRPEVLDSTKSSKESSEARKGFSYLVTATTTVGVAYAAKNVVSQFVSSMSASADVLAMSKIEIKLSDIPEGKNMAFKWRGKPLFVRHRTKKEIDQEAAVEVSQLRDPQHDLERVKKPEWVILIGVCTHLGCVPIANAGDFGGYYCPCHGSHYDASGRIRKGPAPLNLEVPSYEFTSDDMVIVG
T1 sequence (P00125 85-325 partner): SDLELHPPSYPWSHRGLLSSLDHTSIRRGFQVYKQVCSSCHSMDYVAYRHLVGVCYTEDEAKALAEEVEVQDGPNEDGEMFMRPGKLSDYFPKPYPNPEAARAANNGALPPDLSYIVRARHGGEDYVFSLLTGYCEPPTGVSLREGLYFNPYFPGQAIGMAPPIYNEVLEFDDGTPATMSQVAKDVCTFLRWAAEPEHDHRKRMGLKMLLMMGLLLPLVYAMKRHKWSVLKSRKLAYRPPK

In turn, `C/C=C(C)/C=C/C=C/[C@H](OC)[C@@H](C)[C@@H](OC)[C@@H](C)CCc1oc2c(O)c(OC)cc(OC)c2c(=O)c1C` [stigmatellin] showed a pIC50 in experiment [1] of 8.55.
Still for that read-out and setting: in the case of `CO/C=C(/C(=O)OC)c1ccccc1Oc1cc(Oc2ccccc2C#N)ncn1` [azoxystrobin] it was 7.32.
As for `CC(C)(C)c1ccc(/C(=C/C(=O)N2CCOCC2)c2ccnc(Cl)c2)cc1` [pyrimorph, (Z)-3-[(2-chloropyridine-4-yl)-3-(4-tert-butylphenyl)-acryloyl] morpholine], the percent inhibition in experiment [2] is 95.3. Further, the pIC50 is 4.16 in experiment [3] and 4.07 in experiment [4].
`CO/C(=C/C(N)=O)[C@H](C)[C@H](/C=C/c1csc(-c2csc([C@@H](C)/C=C/C=C/C(C)C)n2)n1)OC` [myxothiazol]: the “Lineweaver-Burk kinetics at 30 and 50 nM; difference spectra; single turnover” value in experiment [5] is “myxothiazol is a competitive inhibitor for the substrate quinol but a non-competitive inhibitor for cyt c”.
